The record followed here is patent US20070004634A1 (Novo Nordisk A/S, priority 1998, published 2007).

Read-outs that look alike come from different tables or passages of the source. Positions of bridges follow the written chain, without caps; N, C: chain ends. Residues, ends and D or L forms follow the SMILES beside them. No end group written: not given here.

Experiment [1] concerns the target T1, IR (Homo sapiens, UniProt P06213). The experiment can be described thus: IR-IC50 Biacore. The arrangement: replacing the transmembrane domain and the intracellular domain of IR with constant domains from immunoglobulin Fc or λ subunits; made in house; host or cells: human embryonic kidney 293 cells (Bass et al.). In general terms: Surface plasmon resonance follows binding to a sensor surface in real time, without labels.
Target sequence in this assay (P06213 28-758 limits assumed): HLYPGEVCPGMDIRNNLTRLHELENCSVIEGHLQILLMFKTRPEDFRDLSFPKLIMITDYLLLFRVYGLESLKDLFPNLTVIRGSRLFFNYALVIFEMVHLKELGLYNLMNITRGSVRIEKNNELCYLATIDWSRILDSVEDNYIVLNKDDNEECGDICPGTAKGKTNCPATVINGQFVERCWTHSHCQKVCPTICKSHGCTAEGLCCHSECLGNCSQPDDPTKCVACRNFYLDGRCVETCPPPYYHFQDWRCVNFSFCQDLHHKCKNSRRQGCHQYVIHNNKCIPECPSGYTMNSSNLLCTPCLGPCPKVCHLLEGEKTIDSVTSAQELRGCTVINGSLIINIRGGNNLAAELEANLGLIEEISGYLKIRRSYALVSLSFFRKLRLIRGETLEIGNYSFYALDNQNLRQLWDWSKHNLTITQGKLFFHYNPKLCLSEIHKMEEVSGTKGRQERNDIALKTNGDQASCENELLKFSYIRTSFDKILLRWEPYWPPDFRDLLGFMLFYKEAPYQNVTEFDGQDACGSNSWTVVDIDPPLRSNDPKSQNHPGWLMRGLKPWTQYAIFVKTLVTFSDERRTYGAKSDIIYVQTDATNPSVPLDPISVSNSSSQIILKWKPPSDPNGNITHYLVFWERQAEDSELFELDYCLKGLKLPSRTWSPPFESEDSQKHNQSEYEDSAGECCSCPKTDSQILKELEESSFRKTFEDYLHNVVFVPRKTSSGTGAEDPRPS
Target sequence in this assay (P06213 763-1382 limits assumed): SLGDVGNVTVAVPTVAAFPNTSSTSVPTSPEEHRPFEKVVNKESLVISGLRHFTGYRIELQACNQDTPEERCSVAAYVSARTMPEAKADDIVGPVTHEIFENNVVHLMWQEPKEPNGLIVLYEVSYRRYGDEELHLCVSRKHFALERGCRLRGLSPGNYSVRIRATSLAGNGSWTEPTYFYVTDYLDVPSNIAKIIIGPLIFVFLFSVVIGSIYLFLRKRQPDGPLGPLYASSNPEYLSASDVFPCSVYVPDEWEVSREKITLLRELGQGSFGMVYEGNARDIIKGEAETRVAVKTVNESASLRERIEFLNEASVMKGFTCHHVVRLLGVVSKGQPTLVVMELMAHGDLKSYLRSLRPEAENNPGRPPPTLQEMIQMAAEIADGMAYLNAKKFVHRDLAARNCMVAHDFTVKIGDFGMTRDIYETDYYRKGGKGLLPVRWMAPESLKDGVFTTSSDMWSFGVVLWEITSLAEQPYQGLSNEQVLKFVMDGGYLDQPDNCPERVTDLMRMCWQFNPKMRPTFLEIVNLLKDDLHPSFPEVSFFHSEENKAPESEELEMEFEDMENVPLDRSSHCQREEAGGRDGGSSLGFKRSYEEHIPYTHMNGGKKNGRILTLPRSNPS

Experiment [2] addresses T1, IR. The experiment can be described thus: Phage ELISA, binding of phage clones to IR (ratio over background). The settings on record: ratio of IR divided by ratio of IGF-1R.
Target sequence in this assay (P06213 28-758 limits assumed): as the sequence (P06213 28-758 limits assumed) above
Target sequence in this assay (P06213 763-956 limits assumed): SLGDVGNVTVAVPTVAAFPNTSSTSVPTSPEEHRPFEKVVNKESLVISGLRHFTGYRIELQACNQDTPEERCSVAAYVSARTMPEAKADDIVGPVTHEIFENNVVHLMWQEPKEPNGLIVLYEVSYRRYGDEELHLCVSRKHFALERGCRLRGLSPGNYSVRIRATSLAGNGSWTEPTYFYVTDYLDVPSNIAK
The target in experiment [3] is T2, IGF-1R (Homo sapiens, UniProt P08069). The experiment can be described thus: Phage ELISA, binding of phage clones to IGF-1R (ratio over background). The settings on record: ratio of IGF-1R divided by ratio of IR. On the technique in general: ELISA stands for enzyme-linked immunosorbent assay.
T2 sequence (P08069 31-736 limits assumed): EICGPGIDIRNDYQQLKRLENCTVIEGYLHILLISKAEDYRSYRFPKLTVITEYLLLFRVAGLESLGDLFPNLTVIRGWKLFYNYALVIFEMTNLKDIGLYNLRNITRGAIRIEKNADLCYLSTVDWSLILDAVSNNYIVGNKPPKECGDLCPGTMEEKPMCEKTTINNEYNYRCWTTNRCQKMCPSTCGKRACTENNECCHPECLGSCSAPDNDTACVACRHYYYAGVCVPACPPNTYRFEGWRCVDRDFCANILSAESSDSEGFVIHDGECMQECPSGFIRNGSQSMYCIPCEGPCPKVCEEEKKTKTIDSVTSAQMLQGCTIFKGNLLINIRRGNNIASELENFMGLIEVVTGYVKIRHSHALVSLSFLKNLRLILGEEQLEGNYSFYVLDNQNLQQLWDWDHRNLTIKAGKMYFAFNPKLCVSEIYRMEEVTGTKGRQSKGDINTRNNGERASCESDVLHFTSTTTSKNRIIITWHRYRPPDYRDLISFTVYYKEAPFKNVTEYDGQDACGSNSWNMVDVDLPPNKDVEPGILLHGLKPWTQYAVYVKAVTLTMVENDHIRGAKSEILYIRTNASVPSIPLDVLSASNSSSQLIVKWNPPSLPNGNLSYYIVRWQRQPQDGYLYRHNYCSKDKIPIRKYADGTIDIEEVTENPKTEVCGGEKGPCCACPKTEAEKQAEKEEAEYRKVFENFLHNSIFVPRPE
T2 sequence (P08069 741-935 limits assumed): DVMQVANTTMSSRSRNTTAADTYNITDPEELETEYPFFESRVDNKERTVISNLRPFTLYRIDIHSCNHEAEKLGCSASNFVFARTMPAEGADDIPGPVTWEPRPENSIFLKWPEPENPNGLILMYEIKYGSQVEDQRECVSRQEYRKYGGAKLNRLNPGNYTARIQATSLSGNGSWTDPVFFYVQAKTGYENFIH
In a further experiment the test system is MCF-7 cells. The experiment can be described thus: MCF-7 cell proliferation assay, IGF-1R agonist format. In kind it is cell-based, human. The settings on record: for MCF-7 Agonist: MCF-7 cell proliferation, agonist effect. An excerpt: ; FIGS. 65A-65F), and were used for subsequent experiments.
The target of experiment [4] is T2, IGF-1R. Description: TR-FRET competition with biotinylated-20E2 for rhIGF-1R. To be noted: TR-FRET (rhIGF-1R, b-20E2) versus FP (sIR-Fc), summary of Table 22. For orientation: In TR-FRET formats the signal depends on donor and acceptor labels being close together.
Experiment [5] has as its system FDC-P2 cells expressing the IL-3 and human IGF-1R receptors. The experiment can be described thus: IGF-1 proliferation assay in FDC-P2 cells, agonist format.
Experiment [6] shares this test system. The experiment can be described thus: IGF-1 proliferation assay in FDC-P2 cells, antagonist format. To be noted: FDC-P2 cells.
Experiment [7] deals with T3, soluble human insulin receptor-immunoglobulin heavy chain chimera (sIR-Fc) (Homo sapiens, UniProt P06213).
T3 construct: replacing the transmembrane domain and the intracellular domain of IR with constant domains from immunoglobulin Fc or λ subunits; made in house; host or cells: human embryonic kidney 293 cells (Bass et al.)
T3 sequence (P06213 28-758 limits assumed, stated change not applied): as the sequence (P06213 28-758 limits assumed) above
T3 sequence (P06213 763-956 limits assumed, stated change not applied): as the sequence (P06213 763-956 limits assumed) above
Description: Fluorescence polarization, competition with FITC-RP9 for sIR-Fc. Format: binding. The settings on record: for Bndg Ratio IGF-1R/IR: higher values indicated higher affinity for IR than IGF-1R.

A further experiment deals with MiaPaCa cells. Description: MiaPaCa cell proliferation assay, IGF-1R agonist format. Format: cell-based, human. To be noted: for MiaPaCa Agonist: MiaPaCa cell proliferation, agonist effect.
The test system of experiment [8] is free fat cells (adipocytes). The experiment can be described thus: Adipocyte / free fat cell (FFC) assay, 3H glucose incorporation into lipid.
Experiment [9] concerns the target T4, human insulin receptor (HIR) (Homo sapiens, UniProt P06213).
T4 construct: made in house
The experiment can be described thus: Insulin receptor binding, competition with 125I-labeled insulin (HIR Kd).

[10] abbreviates: FFC assay potency grade, 0, + to ++++++, −.
Setting [11] is: MBP-fusion or recombinant peptide as listed.
[12] abbreviates: free fat cell assay potency class, Table 7.
Setting [13] is: read-out: nM ED50 Growth, FDC-P2 cells, agonist format.

T4 sequence (P06213 28-758 limits assumed): as the sequence (P06213 28-758 limits assumed) above
T4 sequence (P06213 763-1382 limits assumed): as the sequence (P06213 763-1382 limits assumed) above

Regarding `CC(C)C[C@H](NC(=O)CNC(=O)[C@H](CCCNC(=N)N)NC(=O)CNC(=O)[C@H](CCC(=O)O)NC(=O)[C@@H](N)C(C)C)C(=O)N[C@@H](Cc1ccccc1)C(=O)N[C@@H](Cc1ccc(O)cc1)C(=O)N[C@@H](CC(=O)O)C(=O)N[C@@H](CC(C)C)C(=O)N[C@@H](CC(C)C)C(=O)N[C@@H](CCCNC(=N)N)C(=O)N[C@@H](CCC(N)=O)C(=O)N[C@@H](CC(C)C)C(=O)N[C@@H](CC(C)C)C(=O)N[C@@H](C)C(=O)N[C@@H](CCCNC(=N)N)C(=O)N[C@@H](CCCNC(=N)N)C(=O)N[C@@H](CCC(N)=O)C(=O)N[C@@H](CC(N)=O)C(=O)NCC(=O)O` [20E2B-3-C6-IGFR], on IR [1], the IC50 – broadly, the concentration that inhibits the measured activity by half – is > 5000 nM. For the same compound, at IR [2], the “Comparisons IR/IGF-1R” value was 0.1. Further, the “Comparisons IGF-1R/IR” value at IGF-1R [3] is listed as 14.8.

With `CC[C@H](C)[C@H](NC(=O)CN)C(=O)N[C@H](C(=O)N[C@@H](CO)C(=O)N[C@@H](CCC(N)=O)C(=O)N[C@@H](CO)C(=O)N[C@H]1CSSC[C@@H](C(=O)N[C@@H](Cc2c[nH]c3ccccc23)C(=O)O)NC(=O)[C@H](Cc2c[nH]c3ccccc23)NC(=O)[C@H](Cc2c[nH]c3ccccc23)NC(=O)[C@@H]2CCCN2C(=O)[C@H](CC(=O)O)NC(=O)[C@H](CO)NC(=O)[C@H](C(C)C)NC(=O)[C@H](CCC(N)=O)NC(=O)CNC(=O)[C@H](C)NC(=O)[C@H](Cc2ccccc2)NC(=O)[C@H](Cc2c[nH]c3ccccc23)NC(=O)[C@H](CC(=O)O)NC(=O)[C@H](Cc2ccc(O)cc2)NC(=O)[C@H](Cc2ccccc2)NC(=O)[C@H](CO)NC(=O)[C@H](CCC(=O)O)NC(=O)[C@@H]2CCCN2C1=O)[C@@H](C)CC` [Peptide G33] (HELM PEPTIDE1{G.I.I.S.Q.S.C.P.E.S.F.Y.D.W.F.A.G.Q.V.S.D.P.W.W.C.W}$PEPTIDE1,PEPTIDE1,7:R3-25:R3$$$V2.0; N-terminus and C-terminus assumed; bridges inferred), the “IGF-1R agonist activity, proliferation of MCF-7 and MiaPaCa cells, in words” value in the experiment on MCF-7 cells (MCF-7 and MiaPaCa cells (Tables 27-28)) was “IGF-1R agonist activity”. The “MCF-7 Agonist” value in the experiment with MCF-7 cells is reported as “+”. The “binding to IGF-1R compared with IR, in words” value at IGF-1R [4] was “comparable binding to IGF-1R and IR”. In addition, the “FDC-P2 Agonist” value in [5] (FDC-P2 cell proliferation, agonist effect) was “+”. For the same compound, the “agonist activity at IGF-1R, in words” value in [5] (FDC-P2 cells) is given as “IGF-1R agonist activity”. In addition, the EC50 in experiment [5] (read-out: ED50, agonist activity at IGF-1R, FDC-P2 cells) was ~10000 nM. The “antagonist activity at IGF-1R, in words” value in experiment [6] was “no antagonist activity”. Besides, the “potency / affinity at IR, in words” value in experiment [7] (FP with FITC-RP9, summary of Table 22) is listed as “less potent”. For the same compound, in experiment [7], the “Bndg Ratio IGF-1R/IR” value stood at 1.3. Besides, the “MiaPaCa Agonist” value in the experiment with MiaPaCa cells was “+”.

For the compound `CC(C)[C@H](NC(=O)[C@H](Cc1ccccc1)NC(=O)[C@H](Cc1c[nH]c2ccccc12)NC(=O)[C@H](CC(=O)O)NC(=O)[C@H](Cc1ccc(O)cc1)NC(=O)[C@H](Cc1ccccc1)NC(=O)[C@H](CC(N)=O)NC(=O)[C@H](CCC(=O)O)NC(=O)[C@H](Cc1c[nH]cn1)NC(=O)[C@H](Cc1ccccc1)NC(=O)CNC(=O)CNC(=O)[C@@H](N)CSSC[C@H](N)C(=O)NCC(=O)NCC(=O)N[C@@H](Cc1ccccc1)C(=O)N[C@@H](Cc1c[nH]cn1)C(=O)N[C@@H](CCC(=O)O)C(=O)N[C@@H](CC(N)=O)C(=O)N[C@@H](Cc1ccccc1)C(=O)N[C@@H](Cc1ccc(O)cc1)C(=O)N[C@@H](CC(=O)O)C(=O)N[C@@H](Cc1c[nH]c2ccccc12)C(=O)N[C@@H](Cc1ccccc1)C(=O)N[C@H](C(=O)N[C@@H](CCCNC(=N)N)C(=O)N[C@@H](CCC(N)=O)C(=O)N[C@H](C(=O)N[C@@H](CO)C(=O)N[C@@H](CCCCN)C(=O)N[C@@H](CCCCN)C(=O)O)C(C)C)C(C)C)C(=O)N[C@@H](CCCNC(=N)N)C(=O)N[C@@H](CCC(N)=O)C(=O)N[C@H](C(=O)N[C@@H](CO)C(=O)N[C@@H](CCCCN)C(=O)N[C@@H](CCCCN)C(=O)O)C(C)C` [Peptide S228], the FFC entry in experiment [8] (setting [10]) is “++”.

Take `CC[C@@H](C)[C@@H](NC(=O)[C@H](CCC(=O)O)NC(=O)[C@H](CC(=O)O)NC(=O)[C@H](Cc1ccccc1)NC(=O)[C@H](Cc1c[nH]c2ccccc12)NC(=O)[C@H](CCC(=O)O)NC(=O)[C@H](Cc1ccc(O)cc1)NC(=O)[C@H](Cc1ccccc1)NC(=O)[C@H](CCC(=O)O)NC(=O)[C@H](CCCCN)NC(=O)[C@H](CC(N)=O)NC(=O)[C@H](CC(N)=O)NC(=O)[C@@H](N)CCCCN)C(=O)NCC(=O)N[C@H](CCC(N)=O)C(=O)O` [Peptide S320] (HELM PEPTIDE1{K.N.N.K.E.F.Y.E.W.F.D.E.[dI].G.[dQ]}$$$$V2.0; N-terminus and C-terminus assumed): the FFC in [8] (setting [10]) is listed as 0.

With (ESFYDWFERQLGK)2-23 [Peptide S415], the “activity in the free fat cell (FFC) assay / at IR, in words” value in [8] is “highly potent”.

Take “DYKDDDDKVRVDWLQRNANFYAWFVAELGGGSGGSGGSGGSGRVDWLQRNANFYDWFVAELGAAAGAPVPYPDPLEPRAA [RB509]”: the Kd (in general, a measure of binding affinity in units of concentration) in [9] (setting [11]) came out at 55 nM.

With ESFYDWFERQ [Peptide S400], the FFC was 0 in [8] (Table 6, free fat cell assay) and 0 in [8] (setting [12]).

Regarding FHENFYDWFVQRVSKK [H2C (D117)], in experiment [7], the “Bndg Ratio IGF-1R/IR” value worked out at 9.

As for GRFYGWFQDAIDQLMPWGFD [RP-3], the IC50 against IR [1] was > 10000 nM.

As to GSLDESFYDWFER [Peptide S396], the FFC in experiment [8] (Table 6, free fat cell assay) is 0; in [8] (setting [12]), 0.

As to GSLDESFYDWFERQ [Peptide S394], in [8], the “activity in the free fat cell (FFC) assay / at IR, in words” value is “potency similar to full-length RP9 monomer peptides”. Also, the FFC entry in experiment [8] (setting [12]) is “+”.

Regarding GSLDESFYDWFERQL [Peptide S395], the Kd in experiment [9] (Table 6) was found to be 91 nM. Also, the FFC result in experiment [8] (Table 6, free fat cell assay) is recorded as “+”.

In the case of GSLDESFYDWFERQLG [Peptide S386], the FFC result in experiment [8] (setting [10]) is recorded as “+”.

Turning to GSRPVFHEQFYEWFVDQLGL [RP-1], half-maximal inhibition on IR [1] (IC50) was put at 1000 nM.

As to “Insulin-like growth factor 1 [IGF-1, reference compound]”, the EC50 came out at 5 nM with MCF-7 cells (MCF-7 cells, serum-free conditions, read-out: ED50, proliferation) and 5 nM in the experiment on MiaPaCa cells (MiaPaCa cells, serum-free conditions, read-out: ED50, proliferation).

Take “MADYKDDDDKGSLDESFYDWFERQLGKKGGSGGSGSLDESFYDWFERQLGKKAAAGAPVPYPDPLEPRPG [RB521]”: the Kd in experiment [9] (setting [11]) was found to be 44 nM.

As for “MADYKDDDDKWLDQEWAWVQCEVYGRGCPSGGSGGSGSLDESFYDWFERQLGKKAAA(ETAG)PG [Peptide 539]”, the “activity in the free fat cell (FFC) assay / at IR, in words” value in experiment [8] is given as “full agonist”.

In the case of MGSLDESFYDWFERQLGEEEGGDHHHHHHPG [RB569], the equilibrium dissociation constant (Kd) in [9] (setting [11]) is 210 nM.

With “MQNDDGSLDESFYDWFERQLGEEEGGDHHHHHHPG [RB570]”, the Kd in [9] (setting [11]) was found to be 25 nM.

Compound PPWGARFYDAIEQLVFDNL [RP-4] had an IC50 against IR [1] of 5000 nM.

Regarding QSFYDYIEELLGGEWKK [Peptide 20E2-PD1-IR], the IC50 at IR [1] is > 5000 nM.

As to RB596 (MQNDDGSLDESFYDWFERQLGHHHHHHPG), the FF in [8] (fat cell potency, symbols ++ and − not defined in the table) is 9.4*10^−8.

As for “RP6-D8B12 (TFYSCLASLLTGTPQPNRGPWERCRWLEQERAWIWCEIQGSGCRA; not fully specified; cysteine pairing not given here)”, the “MCF-7 Agonist” value in the experiment on MCF-7 cells is “+”. For the same compound, in the experiment with MiaPaCa cells, the “MiaPaCa Agonist” value is listed as “+”.

Regarding RSEASFHVEFYSWFEEQLRS [RP-2], it took 1000 nM to reach half-maximal inhibition against IR [1] (IC50).

Take “WLDQERAWLWCEISGRGCLSGGSGGSGGSGGSGSLDESFYDWFERQLGKK (disulfide 11-18 (inferred)) [D815-RP9 12 aa]”: the “Max Action” value in experiment [5] (FDC-P2 cells, agonist format) was 100%. The EC50 in experiment [5] (setting [13]) turned out to be 10000 nM.

For “WLDQERAWLWCEISGRGCLSGGSGGSGSLDESFYDWFERQLGKK (disulfide 11-18 (inferred)) [D815-RP9 6 aa]”, the “Max Action” value in experiment [5] (FDC-P2 cells, agonist format) is reported as >50%. In addition, the EC50 in experiment [5] (setting [13]) stood at 50 nM.
